# Results as given in patent US20070128217A1 (priority 2003, published 2007).
# Tests used:
# [1] = system: control sera (pooled serum of ten healthy LUMC hospital workers; commercial negative donor pooled serum from the Dutch bloodbank); type: binding, human; parameters: Binding of Control serum LUMC to linear peptides / Binding of Control serum Blood-bank to linear peptides / Binding of Control serum LUMC to looped peptides / Binding of Control Serum Blood-Bank to Looped peptides / Binding of Control serum LUMC to linear peptides of the protein M of SARS-CoV Urbani / Binding of Control serum Blood-bank to linear peptides of the protein M of SARS-CoV Urbani / Binding of Control serum LUMC to looped peptides of the protein M of SARS-CoV Urbani / Binding of Control Serum Blood-Bank to Looped peptides of the protein M of SARS-CoV Urbani: unit not given here
# [2] = system: antibodies in sera from SARS patients (sera 1a, 1b, 2, 6, 37, 62, London, SARS-yellow, SARS-green); type: binding, human; parameters: Binding of serum 6 to linear peptides of protein X1 of SARS-CoV Urbani / Binding of serum 37 to linear peptides of protein X1 of SARS-CoV Urbani / Binding of serum 6 to looped/cyclic peptide (PEPSCAN-ELISA) / Binding of serum 37 to looped/cyclic peptide (PEPSCAN-ELISA) / Binding of serum 37 to looped/cyclic peptides of protein X1 of SARS-CoV Urbani / Binding of serum 6 to linear peptides of protein X2 / Binding of serum 37 to linear peptides of protein X2 / Binding of serum 37 to looped/cyclic peptides of protein X2 of SARS-CoV Urbani / Binding of serum 6 to linear peptides of protein M of SARS-CoV Urbani / Binding of serum 37 to linear peptides of protein M of SARS-CoV Urbani / Binding of serum 6 to looped/cyclic peptides of protein M of SARS-CoV Urbani / Binding of serum 37 to looped/cyclic peptides of protein M of SARS-CoV Urbani / Binding of serum 6 to linear peptides of protein X3 of SARS-CoV Urbani / Binding of serum 37 to linear peptides of protein X3 of SARS-CoV Urbani / Binding of serum 37 to looped/cyclic peptides of protein X3 of SARS-CoV Urbani / Binding of serum 6 to linear peptides of protein X4 of SARS-CoV Urbani / Binding of serum 37 to linear peptides of protein X4 of SARS-CoV Urbani / Binding of serum 37 to looped/cyclic peptides of protein X4 of SARS-CoV Urbani / Binding of serum 6 to linear peptides of protein X5 of SARS-CoV Urbani / Binding of serum 37 to linear peptides of protein X5 of SARS-CoV Urbani / Binding of serum 37 to looped/cyclic peptides of protein X5 of SARS-CoV Urbani / Binding of serum 6 to linear peptides of protein N of SARS-CoV Urbani / Binding of serum 37 to linear peptides of protein N of SARS-CoV Urbani / Binding of serum 6 to linear peptide (PEPSCAN-ELISA) / Binding of serum 1a to looped/cyclic peptides of protein N of SARS-CoV Urbani / Binding of serum 1b to looped/cyclic peptides of protein N of SARS-CoV Urbani / Binding of serum 2 to looped/cyclic peptides of protein N of SARS-CoV Urbani / Binding of serum 6 to looped/cyclic peptides of protein N of SARS-CoV Urbani / Binding of serum 37 to looped/cyclic peptides of protein N of SARS-CoV Urbani / Binding of serum 62 to looped/cyclic peptides of protein N of SARS-CoV Urbani / Binding of serum London to looped/cyclic peptides of protein N of SARS-CoV Urbani / Binding of serum SARS-green to looped/cyclic peptides of protein N of SARS-CoV Urbani: unit not given here
# [3] = system: rabbit serum obtained by immunizing a rabbit with the SARS-CoV strain Frankfurt 1; type: binding; parameters: Binding of a rabbit serum to linear peptides / Binding of a rabbit serum to looped peptides / Rabbit serum linear peptides / Rabbit serum looped peptides / Binding of a rabbit serum to linear peptides of protein N of SARS-CoV Urbani (Rabbit serum linear peptides) / Binding of a rabbit serum to looped/cyclic peptides of protein N of SARS-CoV Urbani (Rabbit serum looped peptides): unit not given here
sequence,measurement,setting,value
FGWLVIGVAFLAVFQ,Binding of Control Serum Blood-Bank to Looped peptides,[1],0.6
same,Binding of Control serum Blood-bank to linear peptides,[1],0.5
same,Binding of Control serum LUMC to linear peptides,[1],0.5
same,Binding of Control serum LUMC to looped peptides,[1],0.7
same,Binding of serum 1a to linear peptides of protein X1 of SARS-CoV Urbani,[2],0.7
same,Binding of serum 1a to looped/cyclic peptide (PEPSCAN-ELISA),[2],0.7
same,Binding of serum 1b to linear peptides of protein X1 of SARS-CoV Urbani,[2],0.5
same,Binding of serum 1b to looped/cyclic peptide (PEPSCAN-ELISA),[2],0.8
same,Binding of serum 2 to linear peptides of protein X1 of SARS-CoV Urbani,[2],0.5
same,Binding of serum 2 to looped/cyclic peptide (PEPSCAN-ELISA),[2],0.7
same,Binding of serum 6 to linear peptides of protein X1 of SARS-CoV Urbani,[2],0.4
same,Binding of serum 6 to looped/cyclic peptide (PEPSCAN-ELISA),[2],0.5
same,Binding of serum 37 to linear peptides of protein X1 of SARS-CoV Urbani,[2],0.6
same,Binding of serum 37 to looped/cyclic peptide (PEPSCAN-ELISA),[2],0.6
same,Binding of serum 62 to linear peptides of protein X1 of SARS-CoV Urbani,[2],0.6
same,Binding of serum 62 to looped/cyclic peptide (PEPSCAN-ELISA),[2],0.7
same,Binding of serum London to linear peptides of protein X1 of SARS-CoV Urbani,[2],0.3
same,Binding of serum London to looped/cyclic peptide (PEPSCAN-ELISA),[2],0.3
same,Binding of serum SARS-green to linear peptides of protein X1 of SARS-CoV Urbani,[2],0.1
same,Binding of serum SARS-green to looped/cyclic peptide (PEPSCAN-ELISA),[2],0.4
same,Binding of serum SARS-yellow to linear peptides of protein X1 of SARS-CoV Urbani,[2],0.5
same,Binding of serum SARS-yellow to looped/cyclic peptide (PEPSCAN-ELISA),[2],0.6
same,Binding of a rabbit serum to linear peptides,[3],1.2
same,Binding of a rabbit serum to looped peptides,[3],0.5
FHLVDFQVTIAEILI,Binding of Control Serum Blood-Bank to Looped peptides of the protein X3 of SARS-CoV Urbani,[1],0.7
same,Binding of Control serum Blood-bank to linear peptides of the protein X3 of SARS-CoV Urbani,[1],0.8
same,Binding of Control serum LUMC to linear peptides of the protein X3 of SARS-CoV Urbani,[1],0.6
same,Binding of Control serum LUMC to looped peptides of the protein X3 of SARS-CoV Urbani,[1],0.8
same,Binding of serum 1a to linear peptides of protein X3 of SARS-CoV Urbani,[2],0.8
same,Binding of serum 1a to looped/cyclic peptides of protein X3 of SARS-CoV Urbani,[2],0.8
same,Binding of serum 1b to linear peptides of protein X3 of SARS-CoV Urbani,[2],0.6
same,Binding of serum 1b to looped/cyclic peptides of protein X3 of SARS-CoV Urbani,[2],0.4
same,Binding of serum 2 to linear peptides of protein X3 of SARS-CoV Urbani,[2],0.7
same,Binding of serum 2 to looped/cyclic peptides of protein X3 of SARS-CoV Urbani,[2],0.8
same,Binding of serum 6 to linear peptides of protein X3 of SARS-CoV Urbani,[2],0.4
same,Binding of serum 6 to looped/cyclic peptides of protein X3 of SARS-CoV Urbani,[2],0.5
same,Binding of serum 37 to linear peptides of protein X3 of SARS-CoV Urbani,[2],0.7
same,Binding of serum 37 to looped/cyclic peptides of protein X3 of SARS-CoV Urbani,[2],0.7
same,Binding of serum 62 to linear peptides of protein X3 of SARS-CoV Urbani,[2],0.6
same,Binding of serum 62 to looped/cyclic peptides of protein X3 of SARS-CoV Urbani,[2],0.7
same,Binding of serum London to linear peptides of protein X3 of SARS-CoV Urbani,[2],0.6
same,Binding of serum London to looped/cyclic peptides of protein X3 of SARS-CoV Urbani,[2],0.2
same,Binding of serum SARS-green to linear peptides of protein X3 of SARS-CoV Urbani,[2],0.5
same,Binding of serum SARS-green to looped/cyclic peptides of protein X3 of SARS-CoV Urbani,[2],0.3
same,Binding of serum SARS-yellow to linear peptides of protein X3 of SARS-CoV Urbani,[2],0.9
same,Binding of serum SARS-yellow to looped/cyclic peptides of protein X3 of SARS-CoV Urbani,[2],0.8
same,Rabbit serum linear peptides,[3],0.3
same,Rabbit serum looped peptides,[3],0.5
